Experimental findings from patent publication US9108983B2, “Pyrrole compounds, a process for their preparation and pharmaceutical compositions containing them” (LES LABORATOIRES SERVIER, priority 2013, dated 2015) are described below.

Counter-ions that a name gives are not always drawn.

One test concerns the target Bcl-2 protein (histag-Bcl-2, UniProtKB P10415) (Homo sapiens (Human), UniProt P10415). The test can be described thus: Inhibition of Bcl-2 by the fluorescence polarisation technique. The conditions noted are these: incubation for 2 hours, read-out: IC50 (nM) Bcl-2 FP. The test is classed as binding. The essentials: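 Fluorescence polarisation competition: His-tagged Bcl-2 (2.50×10^−8 M final) with fluorescein-labelled peptide (1.00×10^−8 M final) in 10 mM Hepes, 150 mM NaCl, 0.05% Tween20, pH 7.4. Increasing compound concentrations were added. Polarisation was read after 2 h incubation.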
Background: In fluorescence polarisation assays a small probe gives low polarisation when free and higher when bound to something large.

The subject of test [1] is RS4;11 leukaemia tumour line. The test is described as follows: In vitro cytotoxicity (Microculture Tetrazolium Assay). As to conditions: Homo sapiens, RS4-11, 48 h, RS4;11 cells, exposed for 48 hours, cell viability; read-out: IC50 (nM) MTT RS4;11. The test is classed as cell-based. As to the method:
The cytotoxicity studies were carried out on the RS4;11 leukaemia tumour line.
The cells are distributed onto microplates and exposed to the test compounds for 48 hours.
The cell viability is then quantified by a colorimetric assay, the Microculture Tetrazolium Assay (Cancer Res., 1987, 47, 939-942).

Bcl-2 protein, sequence (P10415 whole entry): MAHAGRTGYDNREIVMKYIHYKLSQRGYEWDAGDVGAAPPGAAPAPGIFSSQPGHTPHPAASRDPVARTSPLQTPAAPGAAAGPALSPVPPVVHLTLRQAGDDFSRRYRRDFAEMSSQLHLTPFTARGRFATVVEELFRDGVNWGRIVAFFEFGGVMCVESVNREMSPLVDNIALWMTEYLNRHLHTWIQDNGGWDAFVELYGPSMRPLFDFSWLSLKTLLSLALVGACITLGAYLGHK

Regarding `Cc1c(N(C(=O)c2cc(-c3cc(Cl)ccc3C(=O)N3Cc4ccccc4C[C@H]3CN3CCOCC3)n(C)c2)c2ccc(O)cc2)cc(C#N)n1C` [Example 415, 5-(5-Chloro-2-{[(3S)-3-(morpholin-4-ylmethyl)-3,4-dihydroisoquinolin-2(1H)-yl]carbonyl}phenyl)-N-(5-cyano-1,2-dimethyl-1H-pyrrol-3-yl)-N-(4-hydroxyphenyl)-1-methyl-1H-pyrrole-3-carboxamide hydrochloride], the values for the IC50 (at Bcl-2 protein; in test [1]) were 3.8 nM and 29.9 nM, respectively.
On the same counts, the results for `Cl.[2H]C([2H])([2H])n1cc(N(C(=O)c2cc(-c3cc(Cl)ccc3C(=O)N3Cc4ccccc4C[C@H]3CN3CCOCC3)n(C)c2C)c2ccc(O)cc2)cn1` [Example 416, 5-(5-Chloro-2-{[(3S)-3-(morpholin-4-ylmethyl)-3,4-dihydroisoquinolin-2(1H)-yl]carbonyl}phenyl)-N-(4-hydroxyphenyl)-1,2-dimethyl-N-[1-(trideuteriomethyl)-1H-pyrazol-4-yl]-1H-pyrrole-3-carboxamide hydrochloride] are 2.9 nM and 42.5 nM.
On the same counts, the results for `COc1ccc(-c2cc(C(=O)N(c3ccc(O)cc3)c3cc(C#N)n(C)c3C)c(C)n2C)c(C(=O)N2Cc3ccccc3C[C@H]2CN2CCOCC2)c1` [Example 417, N-(5-Cyano-1,2-dimethyl-1H-pyrrol-3-yl)-N-(4-hydroxyphenyl)-5-(4-methoxy-2-{[(3S)-3-(morpholin-4-ylmethyl)-3,4-dihydroisoquinolin-2(1H)-yl]carbonyl}phenyl)-1,2-dimethyl-1H-pyrrole-3-carboxamide hydrochloride] are 3 nM and 11 nM.
On the same counts, the results for `COc1ccc(-c2cc(C(=O)N(c3ccc(O)cc3)c3cnn(C)c3)c(C)n2C)c(C(=O)N2Cc3ccccc3C[C@H]2CN2CCOCC2)c1` [Example 418, N-(4-Hydroxyphenyl)-5-(4-methoxy-2-{[(3S)-3-(morpholin-4-ylmethyl)-3,4-dihydroisoquinolin-2(1H)-yl]carbonyl}phenyl)-1,2-dimethyl-N-(1-methyl-1H-pyrazol-4-yl)-1H-pyrrole-3-carboxamide hydrochloride] are 10.1 nM and 159 nM.
`Cc1c(C(=O)N(c2ccc(O)cc2)c2cccc(C#N)c2)cc(-c2cc(F)ccc2C(=O)N2Cc3ccccc3C[C@H]2CN2CCOCC2)n1C` [Example 419, N-(3-Cyanophenyl)-5-(5-fluoro-2-{[(3S)-3-(morpholin-4-ylmethyl)-3,4-dihydroisoquinolin-2(1H)-yl]carbonyl}phenyl)-N-(4-hydroxyphenyl)-1,2-dimethyl-1H-pyrrole-3-carboxamide hydrochloride]: the IC50 was 2.8 nM on Bcl-2 protein and 15.8 nM in test [1].
In the case of `Cc1c(N(C(=O)c2cc(-c3cc(F)ccc3C(=O)N3Cc4ccccc4C[C@H]3CN3CCOCC3)n(C)c2C)c2ccc(O)cc2)cc(C#N)n1C` [Example 421, N-(5-Cyano-1,2-dimethyl-1H-pyrrol-3-yl)-5-(5-fluoro-2-{[(3S)-3-(morpholin-4-ylmethyl)-3,4-dihydroisoquinolin-2(1H)-yl]carbonyl}phenyl)-N-(4-hydroxyphenyl)-1,2-dimethyl-1H-pyrrole-3-carboxamide hydrochloride], the IC50 at Bcl-2 protein stood at 2.5 nM; in test [1] it was 3.73 nM.
`Cc1c(C(=O)N(c2ccc(O)cc2)c2cnn(C)c2)cc(-c2ccccc2C(=O)N2Cc3ccccc3C[C@H]2CN2CCOCC2)n1C` [Example 422, N-(4-Hydroxyphenyl)-1,2-dimethyl-N-(1-methyl-1H-pyrazol-4-yl)-5-(2-{[(3S)-3-(morpholin-4-ylmethyl)-3,4-dihydroisoquinolin-2(1H)-yl]carbonyl}phenyl)-1H-pyrrole-3-carboxamide hydrochloride]: the IC50 at Bcl-2 protein turned out to be 9.2 nM; in test [1], 101 nM.
In the same order, the values of `Cc1c(C(=O)N(c2ccc(O)cc2)c2cnn(C3COC3)c2)cc(-c2cc(F)ccc2C(=O)N2Cc3ccccc3C[C@H]2CN2CCOCC2)n1C` [Example 423, 5-(5-Fluoro-2-{[(3S)-3-(morpholin-4-ylmethyl)-3,4-dihydroisoquinolin-2(1H)-yl]carbonyl}phenyl)-N-(4-hydroxyphenyl)-1,2-dimethyl-N-[1-(oxetan-3-yl)-1H-pyrazol-4-yl]-1H-pyrrole-3-carboxamide] are 11.7 nM and 344 nM.
With `COc1ncc(N(C(=O)c2cc(-c3ccccc3C(=O)N3Cc4ccccc4C[C@H]3CN3CCOCC3)n(C)c2C)c2ccc(O)cc2)cn1` [Example 424, N-(4-Hydroxyphenyl)-N-(2-methoxypyrimidin-5-yl)-1,2-dimethyl-5-(2-{[(3S)-3-(morpholin-4-ylmethyl)-3,4-dihydroisoquinolin-2(1H)-yl]carbonyl}phenyl)-1H-pyrrole-3-carboxamide hydrochloride], the IC50 at Bcl-2 protein was 13.6 nM; in test [1], 102 nM.
With `COc1cc(C#N)cc(N(C(=O)c2cc(-c3cc(F)ccc3C(=O)N3Cc4ccccc4C[C@H]3CN3CCOCC3)n(C)c2C)c2ccc(O)cc2)c1` [Example 425, N-(3-Cyano-5-methoxyphenyl)-5-(5-fluoro-2-{[(3S)-3-(morpholin-4-ylmethyl)-3,4-dihydroisoquinolin-2(1H)-yl]carbonyl}phenyl)-N-(4-hydroxyphenyl)-1,2-dimethyl-1H-pyrrole-3-carboxamide hydrochloride], the IC50 on Bcl-2 protein turned out to be 4.2 nM; in test [1], 62 nM.
On the same counts, the results for `COc1ncc(N(C(=O)c2cc(-c3cc(F)ccc3C(=O)N3Cc4ccccc4C[C@H]3CN3CCOCC3)n(C)c2C)c2ccc(O)cc2)cn1` [Example 426, 5-(5-Fluoro-2-{[(3S)-3-(morpholin-4-ylmethyl)-3,4-dihydroisoquinolin-2(1H)-yl]carbonyl}phenyl)-N-(4-hydroxyphenyl)-N-(2-methoxypyrimidin-5-yl)-1,2-dimethyl-1H-pyrrole-3-carboxamide] are 5.2 nM and 139 nM.
Turning to `COc1ccc(N(C(=O)c2cc(-c3cc(F)ccc3C(=O)N3Cc4ccccc4C[C@H]3CN3CCOCC3)n(C)c2C)c2ccc(O)cc2)cc1C#N` [Example 427, N-(3-Cyano-4-methoxyphenyl)-5-(5-fluoro-2-{[(3S)-3-(morpholin-4-ylmethyl)-3,4-dihydroisoquinolin-2(1H)-yl]carbonyl}phenyl)-N-(4-hydroxyphenyl)-1,2-dimethyl-1H-pyrrole-3-carboxamide hydrochloride], the IC50 at Bcl-2 protein turned out to be 2.2 nM; in test [1], 23.3 nM.
In the same order, the values of `Cc1c(N(C(=O)c2cc(-c3ccc(F)cc3C(=O)N3Cc4ccccc4C[C@H]3CN3CCOCC3)n(C)c2C)c2ccc(O)cc2)cc(C#N)n1C` [Example 428, N-(5-Cyano-1,2-dimethyl-1H-pyrrol-3-yl)-5-(4-fluoro-2-{[(3S)-3-(morpholin-4-ylmethyl)-3,4-dihydroisoquinolin-2(1H)-yl]carbonyl}phenyl)-N-(4-hydroxyphenyl)-1,2-dimethyl-1H-pyrrole-3-carboxamide hydrochloride] are 3.5 nM and 59.2 nM.
Take `COc1cc(-c2cc(C(=O)N(c3ccc(O)cc3)c3cc(C#N)n(C)c3C)c(C)n2C)c(C(=O)N2Cc3ccccc3C[C@H]2CN2CCOCC2)cc1F` [Example 429, N-(5-Cyano-1,2-dimethyl-1H-pyrrol-3-yl)-5-(4-fluoro-5-methoxy-2-{[(3S)-3-(morpholin-4-ylmethyl)-3,4-dihydroisoquinolin-2(1H)-yl]carbonyl}phenyl)-N-(4-hydroxyphenyl)-1,2-dimethyl-1H-pyrrole-3-carboxamide hydrochloride]: the half-maximal inhibitory concentration (IC50) on Bcl-2 protein came out at 3.1 nM; in test [1], 109 nM.
In the same order, the values of `Cc1c(C(=O)N(c2ccc(O)cc2)c2cnc3c(ccn3C)c2)cc(-c2cc(Cl)ccc2C(=O)N2Cc3ccccc3CC2C(F)(F)F)n1C` (stereo not drawn) [Example 430, 5-(5-Chloro-2-{[3-(trifluoromethyl)-3,4-dihydroisoquinolin-2(1H)-yl]-carbonyl}phenyl)-N-(4-hydroxyphenyl)-1,2-dimethyl-N-(1-methyl-1H-pyrrolo[2,3-b]-pyridin-5-yl)-1H-pyrrole-3-carboxamide] are 19.9 nM and 328 nM.
Turning to `Cc1nn(C)cc1N(C(=O)c1cc(-c2cc(Cl)ccc2C(=O)N2Cc3ccccc3C[C@H]2CN2CCOCC2)n(C)c1C)c1ccc(O)cc1` [Example 431, 5-(5-Chloro-2-{[(3S)-3-(morpholin-4-ylmethyl)-3,4-dihydroisoquinolin-2(1H)-yl]carbonyl}phenyl)-N-(1,3-dimethyl-1H-pyrazol-4-yl)-N-(4-hydroxyphenyl)-1,2-dimethyl-1H-pyrrole-3-carboxamide hydrochloride], the values for the IC50 (at Bcl-2 protein; in test [1]) were 3 nM and 89 nM, respectively.
As for `Cc1c(N(C(=O)c2cc(-c3cc(Cl)ccc3C(=O)N3Cc4ccccc4C[C@H]3CN3CCOCC3)n(C)c2C)c2ccc(O)cc2)cnn1C` [Example 432, 5-(5-Chloro-2-{[(3S)-3-(morpholin-4-ylmethyl)-3,4-dihydroisoquinolin-2(1H)-yl]carbonyl}phenyl)-N-(1,5-dimethyl-1H-pyrazol-4-yl)-N-(4-hydroxyphenyl)-1,2-dimethyl-1H-pyrrole-3-carboxamide hydrochloride], the IC50 at Bcl-2 protein was found to be 3.4 nM; in test [1], 76.6 nM.
Consider `Cc1c(C(=O)N(c2ccc(O)cc2)c2cc(C#N)n(C)c2)cc(-c2ccccc2C(=O)N2Cc3ccccc3C[C@H]2CN2CCOCC2)n1C` [Example 433, N-(5-Cyano-1-methyl-1H-pyrrol-3-yl)-N-(4-hydroxyphenyl)-1,2-dimethyl-5-(2-{[(3S)-3-(morpholin-4-ylmethyl)-3,4-dihydroisoquinolin-2(1H)-yl]carbonyl}phenyl)-1H-pyrrole-3-carboxamide hydrochloride], for which the results for the IC50 (on Bcl-2 protein; in test [1]) were 2.6 nM and 48.2 nM, respectively.

One may read the IC50 as the concentration that inhibits the measured activity by half.
